Measurements from US5672603A, “Apoptosis regulating composition” (Otsuka Pharmaceutical Co., Ltd., priority 1991, dated 1997).
Several values for one entry are separate records, joined by “and”; a condition that tells them apart may be missing. Equal entries are not always repeated. Entries after “also recorded” stand apart in the source; their conditions may differ.

Legend:
[1] = test system: HL-60 cells; test: Reactivity of HL-60 cells with anti-CD33 monoclonal antibody My9 (flow cytometry); assay type: cell-based, human; details: day 27, control 97
Procedure: The monoclonal antibody My9 (Coulter) capable of specifically reacting with immature granulocytes was dissolved by adding 0.5 ml of distilled water per vial.
HL-60 cells prepared as described above under (1) were cultivated in the same manner as in a). On day 27, the cell concentration was adjusted to 1×10^6 cells/ml and 100 μl of each aliquot was reacted with 10 μl of fluorescein (FITC)-labeled My9, followed by flow cytometry.

[2] = test system: HL-60 cells; test: Induction of differentiation of HL-60 cells (CD11b expression, flow cytometry); assay type: cell-based, human; design: reference not given here; details: 30 μg/ml; 3 days; CD11b fluorescence
Procedure: HL-60 cells were cultivated in RPMI-1640 medium supplemented with 10% of FCS at 37° C. under 5% CO2, and the cell concentration was adjusted to 5×10^4 cells/ml.
Then, the above-mentioned medium containing 30 μg/ml of each test compound was added to each well of 6-well microplates (Costar), followed by 3 days of incubation at 37° C. under 5% CO2. In a control group, the above medium alone was added and incubation was performed in the same manner. Thereafter, each cultured cell suspension was sampled into an Eppendorf tube and, after staining with 0.2% trypan blue-containing phosphate buffer, viable cells were counted using a hematocytometer.
The above cells were adjusted to 1×10^7 cells/ml. To 100 μl of the cell suspension was added 5 μl of a solution of fluorescein isothiocyanate (FITC)-labeled anti-human CD11b antibody (Mol; Coulter) and the reaction was allowed to proceed on ice in the dark for 30 minutes. Then, cells were washed twice with PBS (phosphate-buffered saline; Nissui Pharmaceutical) containing 0.1% of BSA (bovine serum albumin; Sigma), finally suspended in 500 μl of the BSA-containing PBS and measured for fluorescence intensity by flow cytometry using Profile II (Coulter).

[3] = test system: human peripheral blood acute lymphocytic leukemia cells (Molt-4); test: ATL-infected cell growth inhibition test: ATLV-noninfected cells; assay type: cell-based; details: for Number of ATLV-noninfected cells: 4 days, control 13.9
Procedure: Human peripheral blood acute lymphocytic leukemia cells (Molt-4) [J. Minowada, et al., J. Natl. Cancer Inst., 49, 891-895 (1972): ATCC CRL1582] were used to prepare a suspension of 1×10^5 cells/ml in RPMI-1640 medium (Gibco) supplemented 10% fetal calf serum (FCS, Gibco) for use as ATL virus-noninfected cells.
(§1) Compound 1 was dissolved in hydrochloric acid, diluted with the same medium as above, neutralized with 2N NaOH and adjusted to concentrations of 1 μg/ml, 10 μg/ml and 30 μg/ml.
(§2) The cells prepared in (a) and (b) above were respectively placed in wells of a 24-well culture plate (Nunc), followed by addition of the test compound prepared in (c) (final concentration: 1 μg/ml, 10 μg/ml or 30 μg/ml), and cultured at 37° C. in a 5% carbon dioxide incubator for 4 days. As a control, the medium without addition of the test compound was used. After completion of incubation, the cell suspension in each well was taken for determination of viable cells.

[4] = test system: human adult T cell leukemic cells (5S); test: ATL-infected cell growth inhibition test: ATLV-infected cells; assay type: cell-based; details: for Number of ATLV-infected cells: 4 days, control 6.5
Procedure: Human adult T cell leukemia cells (5S) were used to prepare a suspension of 1×10^5 cells/ml in RPMI-1640 medium (Gibco) supplemented 10% fetal calf serum (FCS, Gibco) for use as ATL virus-infected cells.
as §1, §2

[5] = test system: anti-platelet antibodies; test: Assay of anti-platelet antibodies in autoimmune disease mice; assay type: in vivo, W/BF1 mice; details: for Anti-platelet antibodies, % positive, Mean ± SE / Anti-platelet antibodies, % positive, individual mice: 20 weeks of age; for Anti-platelet antibodies, % positive, Mean ± SE: untreated 19.6 ± 5.5
Procedure: W/BF1 :(NZW×BXSB)F1 mice were used at the age of 14 weeks (purchased from Kiwa Experimental Animal). Groups of 10 mice were used in each experiment.
Compound 1 (Lot No. 9D87M) was used as suspended in a 0.5% solution of carborymethylcellulose (CMC, Cellogan). Compound 1 was administered to mice by oral garage in doses of 100 and 300 mg/kg body weight/day for 6 weeks from 14 weeks of age to 20 weeks of age according to the 5-day administration and 2-day cessation schedule. As a control, an untreated group was provided. […] Statistic analysis was performed by the generalized Wilcoxon test with respect to the untreated group.
(3) Oyaizu et al. have reported that in W/BF1 mice, thrombocytopenia is associated with the appearance of anti-platelet antibodies.
The platelets collected from Balb/c mice and the plasma collected from W/BF1 mice treated up to the age of 20 weeks were incubated together at room temperature for 30 minutes. The mixture was washed twice and allowed to react with FITC-labeled anti-mouse IgG (Tago, Code No. 6250), and after staining, anti-platelet antibodies were assayed with an FACS analyzer (EPICS-Profile II, Coulter). The negative control was set so that the plasma from Balb/c mice was 98% negative. The positive rate of each sample was determined.

[6] = test system: MRL/Mp-1 pr/1 pr mice; test: Therapeutic effect on autoimmune disease in MRL mice; assay type: in vivo; details: 300 mg/kg oral
Text: Groups of five female MRL/Mp-1 pr/1 pr mice (purchased at 7 weeks of age from Charles River Japan, Inc.) were used at the age of 19 weeks.
Mice of the above strain are known to spontaneously develop autoimmune diseases such as human systemic lupus erythematosus (SLE)-like immune complex glomerulonephritis, lymphoma, vasculitis and polyarthritis (Theofilopolos, A. and Dixon, F. J., Adv. Immunology, 37, 269 (1985); Murphy, E. D., Roths, J. B., Autoimmunity and lymphoproliferation, Elsevier North Holland, N.Y., 207-221 (1978); Taniguchi, Y., Gendai Iryo, 21, 131 (1989); Abe, C.).
Mice in both the Compound 1-treated group and the control group (untreated group) were given a mouse diet (Oriental Yeast) and water.
Compound 1 was used as suspended in 0.5% carboxymethytcellulose (CMC, Dai-ichi Kogyo Seiyaku Co., Ltd.) solution.
Compound 1 was administered by oral garage in a dose of 300 mg/kg body weight daily from the age of 19 weeks to the age of 25 weeks according to the 5-day administration and 2-day cessation schedule (Compound 1-treated group).
Mice in the respective groups were examined for changes in urinary protein, lymphoma diameter, vasculitis of the auricle, and loss of hair.

COc1ccc(C(=O)N2CCN(c3ccc4c(c3)CCC(=O)N4)CC2)cc1OC [Compound 1, 6-[4-(3,4-Dimethoxybenzoyl)-1-piperazinyl]-3,4-dihydrocarbostyril]
Positive rate (%), anti-CD33 My9 ([1]; 1.0 μg/ml): 90% | Positive rate (%), anti-CD33 My9 ([1]; 10 μg/ml): 77% | Induction of differentiation promoting effect [2]: 322 | Number of ATLV-noninfected cells ([3]; 1 μg/ml): 13.9 ×10^5 | Number of ATLV-noninfected cells ([3]; 10 μg/ml): 12.2 ×10^5 | Number of ATLV-noninfected cells ([3]; 30 μg/ml): 12.8 ×10^5 | Effect on ATLV-noninfected cells (in words) ([3]; 1-30 μg/ml): does not affect ATLV-noninfected cells | Number of ATLV-infected cells ([4]; 1 μg/ml): 0.6 ×10^5 | Number of ATLV-infected cells ([4]; 10 μg/ml): 0.2 ×10^5 | Number of ATLV-infected cells ([4]; 30 μg/ml): 3.3 ×10^5 | Growth inhibition of ATLV-infected cells (in words) ([4]; at least 1 μg/ml): potent inhibitory effect on the growth of ATLV-infected cells | Anti-platelet antibodies, % positive, Mean ± SE ([5]; 100 mg/kg/day): 13.3 ± 2.7% and 13.2±2.7% | Anti-platelet antibodies, % positive, individual mice ([5]; 100 mg/kg, mouse Nos. 1-10): 3.7% and 13.5% and 3.1% and 17.3% and 21.5% and 16.8% and 18.2% and 7.8% and 8.5% and 27.1% | Anti-platelet antibodies, % positive, Mean ± SE ([5]; 300 mg/kg/day): 10.7 ± 2.2% | Anti-platelet antibodies, % positive, individual mice ([5]; 300 mg/kg, mouse Nos. 1-4, 6-9): 2.3% and 11.4% and 14.1% and 6.0% and 16.4% and 12.1% and 4.1% and 19.5% | Inhibition of anti-platelet antibodies (in words) ([5]; 100 and 300 mg/kg/day): dose-dependent inhibition of anti-platelet antibodies | Urinary protein ([6]; 19 to 25 weeks of age, vs control): tendency of inhibition of the increase in urinary protein | Loss of hair ([6]; FIG. 8, vs control): improvements in vasculitis and loss of hair | Vasculitis ([6]; FIG. 8, vs control): improvements in vasculitis | Lymphoma size, diameter ([6]; control 9.0±0.8 mm): 7.8±1.3 mm | Lymphoma (in words) ([6]; vs control): enlargement of lymphoma was slightly inhibited; also recorded: reduction in lymphoma
